This note sets out measurements from paper PMC10439028, “SGLT5 is the renal transporter for 1,5-anhydroglucitol, a major player in two rare forms of neutropenia” (Cellular and Molecular Life Sciences: CMLS, 2023).

Numbering of substitutions follows the chain as printed.

The target of one assay is T1, hSGLT5 Arg401His (Homo sapiens, UniProt A0PJK1, R401H).
T1 construct: pUB83-hSGLT5-iso2 as well as the various SGLT5 mutants obtained were used to transduce HEK293T cells; expressed in transfected cells; host or cells: HEK293T, lentiviral transduction (pUB83)
T1 sequence (A0PJK1 1-596 R401H): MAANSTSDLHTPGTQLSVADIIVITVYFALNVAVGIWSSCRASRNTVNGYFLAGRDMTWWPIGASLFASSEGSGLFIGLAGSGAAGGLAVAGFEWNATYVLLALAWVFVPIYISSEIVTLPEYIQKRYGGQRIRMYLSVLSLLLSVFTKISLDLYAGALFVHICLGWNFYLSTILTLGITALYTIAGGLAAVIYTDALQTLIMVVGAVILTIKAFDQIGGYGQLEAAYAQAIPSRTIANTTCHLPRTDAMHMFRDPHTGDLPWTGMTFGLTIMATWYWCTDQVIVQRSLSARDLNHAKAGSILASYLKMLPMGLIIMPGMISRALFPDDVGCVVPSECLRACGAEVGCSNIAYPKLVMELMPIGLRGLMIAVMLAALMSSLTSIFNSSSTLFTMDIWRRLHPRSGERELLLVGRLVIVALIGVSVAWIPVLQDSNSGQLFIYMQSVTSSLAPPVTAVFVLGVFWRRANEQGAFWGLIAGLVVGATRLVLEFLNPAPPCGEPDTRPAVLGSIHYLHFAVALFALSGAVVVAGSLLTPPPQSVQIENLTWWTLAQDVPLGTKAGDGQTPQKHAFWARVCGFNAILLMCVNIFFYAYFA
Put plainly: 1,5-AG uptake in HEK293T cells overexpressing SGLT5 variant Arg401His. In kind it is cell-based. The protocol:
(§1) For a typical transporter experiment we proceeded as follows. […] To minimize cell loss during the various washing steps in the radioactive uptake experiments, the wells where the cells were seeded were previously coated with poly- D-lysine, which improved their adhesion to the plastic surface of the wells. For this, each well of the 24-well plates was treated with 200 µl of a 0.01% poly-L-lysine solution for 10 min, washed 3 times with 1 ml of sterilized water and left to dry for 2 h. Only then could the 24-well plates be seeded with the appropriate cell lines and cultured overnight at 37 °C in 5% CO2.
On day two, the radioactive uptake assay could be performed. The cell culture media was removed by aspiration and cells were incubated for 20 min at 37 °C and 5% CO2 with a basal medium (10 mM HEPES, pH 7.4, 1 mM CaCl2, 1 mM MgCl2, 2 mM KCl) containing 140 mM choline chloride to deplete intracellular Na^2+ ions. […]
(§2) Once the uptake medium was added to the cells, the plates were incubated at 37 °C in 5% CO2 during the required time. […] In each experiment, the transport activities were calculated after subtracting a “blank” value, corresponding to the radioactivity in the appropriate control cells (HEK293T cells that were stably or transiently transfected with one of the parent plasmids pEF6/MycHisA, pEF6HisB, pUB82 or pUB83 with no inserted cDNA) that were analyzed in parallel. […]

Another assay deals with T2, hSGLT5 Gly471Glu (Homo sapiens, UniProt A0PJK1, G471E).
T2 construct: pUB83-hSGLT5-iso2 as well as the various SGLT5 mutants obtained were used to transduce HEK293T cells; expressed in transfected cells; host or cells: HEK293T, lentiviral transduction (pUB83)
T2 sequence (A0PJK1 1-596 G471E): T1 sequence (A0PJK1 1-596 R401H) with H401R, G471E
Kind of assay: 1,5-AG uptake in HEK293T cells overexpressing SGLT5 variant Gly471Glu. In kind it is cell-based. The protocol:
as §1
On day two, the radioactive uptake assay could be performed. The cell culture media was removed by aspiration and cells were incubated for 20 min at 37 °C and 5% CO2 with a basal medium (10 mM HEPES, pH 7.4, 1 mM CaCl2, 1 mM MgCl2, 2 mM KCl) containing 140 mM choline chloride to deplete intracellular […] ions. This was subsequently replaced with the uptake medium (basal medium + 140 mM NaCl, 25 μM cytochalasin B, 1 mg/ml BSA) containing either radioactive U-[^14C]-mannose (15,000 cpm/well) or 2-[^3H]-1,5-AG (30,000 cpm/well) and respectively, non-radioactive mannose or 1,5-AG, at the required concentration in the experiment. Importantly, when measuring the transport of mannose, the uptake media also contained 0.5 mM glucose. This resulted from the need to reduce the background transport of mannose in control HEK293T cells in order to optimize the transport assay for this sugar in our model cell lines. […]
as §2

With `OC[C@H]1OC[C@H](O)[C@@H](O)[C@@H]1O` [1,5-AG, 1,5-anhydroglucitol], at hSGLT5 Arg401His, the Vmax stood at 11.4 ± 0.2 pmol/min/10^5cells and the “reduction of transport efficiency compared to SGLT5” value is on record as “twofold”. Besides, at hSGLT5 Gly471Glu (variant Gly471Glu), the Vmax entry is given as “No transport” and the “effect of mutation on ability of SGLT5 to transport 1,5-AG” value is “abolished”. For the same compound, the “Km for 1,5-AG” value at hSGLT5 Gly471Glu (variant Gly471Glu (rs61741107)) is “No transport”.
